Among the data in ChEMBL document CHEMBL1201862, “PubChem BioAssay data set” (2004) are IC50, EC50 and AC50 values, retold here.

Active and inactive are the calls of the source.

The target of assay [1] is G-protein coupled receptor 55 (Homo sapiens, UniProt Q9Y2T6). The assay is described as follows: inhibition of LPI-stimulated GPR55 beta-arrestin translocation – imaging, U2OS, beta-arrestin-GFP, LPI agonist, primary screen (AID 2013).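 Also: antagonist potency measured as reduced agonist-driven arrestin aggregation.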 In kind it is functional.
Assay [2] addresses DNA dC->dU-editing enzyme APOBEC-3G (Homo sapiens, UniProt Q9HC16). Type of assay: functional.
Assay [3] deals with T1, RNA-binding protein pos-1 (Caenorhabditis elegans, UniProt G5EF15).
T1 sequence (G5EF15 whole entry): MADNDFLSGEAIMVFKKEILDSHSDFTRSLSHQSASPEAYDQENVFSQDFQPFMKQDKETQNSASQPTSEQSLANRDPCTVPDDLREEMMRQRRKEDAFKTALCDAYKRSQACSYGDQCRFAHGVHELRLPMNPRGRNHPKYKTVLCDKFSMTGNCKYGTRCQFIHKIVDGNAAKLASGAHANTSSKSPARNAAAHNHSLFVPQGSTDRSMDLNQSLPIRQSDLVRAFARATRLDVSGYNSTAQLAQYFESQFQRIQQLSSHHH
The experiment in a line: disruptors of C. elegans POS-1 RNA interaction – biochemical, fluorescence polarization, dose response (AID 1964).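 Also: purified POS-1 fused to maltose binding protein made in E. coli; potency of compounds blocking POS-1 binding to fluorescent RNA.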 On the technique in general: Fluorescence polarisation rises when a labelled molecule tumbles more slowly, as on binding a larger partner.

The target in assay [4] is DNA dC->dU-editing enzyme APOBEC-3A (Homo sapiens, UniProt P31941). The experiment in a line: Dose Response confirmation of small molecule APOBEC3A DNA Deaminase Inhibitors via a fluorescence-based single-stranded DNA deaminase assay. [Related pubchem assays (depositor defined):AID493011, AID493024]. In kind it is functional.
Assay [5] concerns the target T2, Zinc finger protein mex-5 (Caenorhabditis elegans, UniProt Q9XUB2).
T2 sequence (Q9XUB2 whole entry): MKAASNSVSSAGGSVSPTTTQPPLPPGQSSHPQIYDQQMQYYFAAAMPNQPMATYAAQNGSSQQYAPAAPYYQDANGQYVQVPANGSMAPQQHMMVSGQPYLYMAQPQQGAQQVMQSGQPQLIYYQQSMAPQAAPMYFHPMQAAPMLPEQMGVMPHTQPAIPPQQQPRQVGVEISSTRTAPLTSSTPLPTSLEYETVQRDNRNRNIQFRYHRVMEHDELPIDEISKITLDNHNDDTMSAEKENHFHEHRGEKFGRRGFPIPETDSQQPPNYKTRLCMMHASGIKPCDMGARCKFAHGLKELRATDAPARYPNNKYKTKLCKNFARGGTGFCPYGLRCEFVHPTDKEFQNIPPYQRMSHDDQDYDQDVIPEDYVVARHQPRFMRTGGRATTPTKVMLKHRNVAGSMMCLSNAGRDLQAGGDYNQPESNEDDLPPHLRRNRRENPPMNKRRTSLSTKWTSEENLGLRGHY
The assay is described as follows: potency of MEX-5 RNA-binding blockers – biochemical, C. elegans, fluorescence polarization, dose response (AID 1960).

In assay [6] the target is T3, Alkaline phosphatase, tissue-nonspecific isozyme (Homo sapiens, UniProt P05186).
T3 sequence (P05186 whole entry): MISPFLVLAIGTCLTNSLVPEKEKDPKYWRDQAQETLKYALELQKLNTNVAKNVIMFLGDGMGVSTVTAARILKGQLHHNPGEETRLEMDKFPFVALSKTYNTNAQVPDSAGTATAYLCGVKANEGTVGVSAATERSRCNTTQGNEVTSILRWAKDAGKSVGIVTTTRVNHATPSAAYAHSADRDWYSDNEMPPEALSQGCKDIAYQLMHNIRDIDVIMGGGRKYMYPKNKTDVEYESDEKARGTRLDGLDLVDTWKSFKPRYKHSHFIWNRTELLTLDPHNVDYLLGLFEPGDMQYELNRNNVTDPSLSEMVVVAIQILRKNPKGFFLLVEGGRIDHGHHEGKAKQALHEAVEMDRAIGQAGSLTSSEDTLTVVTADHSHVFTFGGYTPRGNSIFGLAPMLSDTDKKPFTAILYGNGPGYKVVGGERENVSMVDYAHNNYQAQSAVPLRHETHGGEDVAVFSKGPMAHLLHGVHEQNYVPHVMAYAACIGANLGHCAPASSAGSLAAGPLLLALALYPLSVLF
The assay is described as follows: potency against alkaline phosphatase TNAP – biochemical, luminescent, dose response, SAR follow-up (AID 1056).

In assay [7] the target is Alkaline phosphatase, placental type (Homo sapiens, UniProt P05187). The experiment in a line: human placental alkaline phosphatase inhibition – biochemical, luminescence, confirmation (AID 1512). Type of assay: functional.
Assay [8] has as its target T4, Short transient receptor potential channel 4 (Mus musculus, UniProt Q9QUQ5).
T4 sequence (Q9QUQ5 whole entry): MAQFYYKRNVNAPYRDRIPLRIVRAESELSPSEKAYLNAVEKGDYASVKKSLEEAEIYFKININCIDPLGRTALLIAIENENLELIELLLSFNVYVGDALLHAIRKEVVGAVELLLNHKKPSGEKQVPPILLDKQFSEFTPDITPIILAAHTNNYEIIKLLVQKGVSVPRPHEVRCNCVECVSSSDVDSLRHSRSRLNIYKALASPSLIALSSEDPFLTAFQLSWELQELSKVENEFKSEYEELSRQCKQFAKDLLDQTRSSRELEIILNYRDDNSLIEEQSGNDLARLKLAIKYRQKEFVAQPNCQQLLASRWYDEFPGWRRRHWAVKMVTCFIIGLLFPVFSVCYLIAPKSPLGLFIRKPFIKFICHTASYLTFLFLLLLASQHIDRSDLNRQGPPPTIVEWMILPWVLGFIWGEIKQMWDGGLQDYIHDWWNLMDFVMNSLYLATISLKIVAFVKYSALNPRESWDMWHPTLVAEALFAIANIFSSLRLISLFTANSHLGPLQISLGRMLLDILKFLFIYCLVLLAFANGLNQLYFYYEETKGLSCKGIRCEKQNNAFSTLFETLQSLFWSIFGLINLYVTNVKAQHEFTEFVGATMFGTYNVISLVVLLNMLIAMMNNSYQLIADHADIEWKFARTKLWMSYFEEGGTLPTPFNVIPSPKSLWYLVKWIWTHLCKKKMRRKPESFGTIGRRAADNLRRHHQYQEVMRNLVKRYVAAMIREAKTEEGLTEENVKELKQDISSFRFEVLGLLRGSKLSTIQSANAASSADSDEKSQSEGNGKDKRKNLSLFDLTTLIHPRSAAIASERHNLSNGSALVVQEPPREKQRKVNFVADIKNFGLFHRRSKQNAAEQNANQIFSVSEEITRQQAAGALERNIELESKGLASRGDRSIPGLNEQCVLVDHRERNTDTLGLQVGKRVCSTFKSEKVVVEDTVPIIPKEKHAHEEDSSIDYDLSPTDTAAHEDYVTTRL
The experiment in a line: potentiation of DAMGO-evoked TRPC4 calcium signal – cell-based, HEK293 TRPC4/mu-opioid, Fluo-4 calcium, EC20 DAMGO, dose response (AID 434941).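 Also: HEK293 cells coexpressing TRPC4 and mu opioid receptor stimulated by EC20 DAMGO.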 In kind it is functional.

A further assay addresses T5, CAAX prenyl protease 2 (Saccharomyces cerevisiae S288c, UniProt Q03530).
T5 sequence (Q03530 whole entry): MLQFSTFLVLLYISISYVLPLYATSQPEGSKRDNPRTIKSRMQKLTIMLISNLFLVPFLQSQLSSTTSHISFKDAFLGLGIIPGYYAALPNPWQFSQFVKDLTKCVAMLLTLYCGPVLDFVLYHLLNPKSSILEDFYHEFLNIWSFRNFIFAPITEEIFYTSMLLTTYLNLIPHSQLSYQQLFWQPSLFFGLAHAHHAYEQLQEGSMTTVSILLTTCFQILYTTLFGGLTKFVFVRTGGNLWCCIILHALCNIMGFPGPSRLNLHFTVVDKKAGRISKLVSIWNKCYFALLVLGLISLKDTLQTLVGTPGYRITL
Type of assay: biochemical.

Another assay addresses Nonstructural protein 1 (Influenza A virus, UniProt Q194T2). In kind it is functional, Influenza A virus (A/California/07/2009(H1N1)).
Assay [9] concerns the target Intestinal-type alkaline phosphatase (Homo sapiens, UniProt P09923). The experiment in a line: activation of human intestinal alkaline phosphatase – biochemical, dose response (AID 488873). In kind it is functional.
Assay [10] has as its target T3, Alkaline phosphatase, tissue-nonspecific isozyme. The assay is described as follows: TNAP enzyme inhibition by screening hits, dose response, selectivity assay for mouse IAP inhibitor project, biochemical, human TNAP, uHTS hits (AID 488906). In kind it is functional.
Assay [11] deals with T6, Histone-lysine N-methyltransferase NSD2 (Homo sapiens, UniProt O96028).
T6 sequence (O96028 whole entry): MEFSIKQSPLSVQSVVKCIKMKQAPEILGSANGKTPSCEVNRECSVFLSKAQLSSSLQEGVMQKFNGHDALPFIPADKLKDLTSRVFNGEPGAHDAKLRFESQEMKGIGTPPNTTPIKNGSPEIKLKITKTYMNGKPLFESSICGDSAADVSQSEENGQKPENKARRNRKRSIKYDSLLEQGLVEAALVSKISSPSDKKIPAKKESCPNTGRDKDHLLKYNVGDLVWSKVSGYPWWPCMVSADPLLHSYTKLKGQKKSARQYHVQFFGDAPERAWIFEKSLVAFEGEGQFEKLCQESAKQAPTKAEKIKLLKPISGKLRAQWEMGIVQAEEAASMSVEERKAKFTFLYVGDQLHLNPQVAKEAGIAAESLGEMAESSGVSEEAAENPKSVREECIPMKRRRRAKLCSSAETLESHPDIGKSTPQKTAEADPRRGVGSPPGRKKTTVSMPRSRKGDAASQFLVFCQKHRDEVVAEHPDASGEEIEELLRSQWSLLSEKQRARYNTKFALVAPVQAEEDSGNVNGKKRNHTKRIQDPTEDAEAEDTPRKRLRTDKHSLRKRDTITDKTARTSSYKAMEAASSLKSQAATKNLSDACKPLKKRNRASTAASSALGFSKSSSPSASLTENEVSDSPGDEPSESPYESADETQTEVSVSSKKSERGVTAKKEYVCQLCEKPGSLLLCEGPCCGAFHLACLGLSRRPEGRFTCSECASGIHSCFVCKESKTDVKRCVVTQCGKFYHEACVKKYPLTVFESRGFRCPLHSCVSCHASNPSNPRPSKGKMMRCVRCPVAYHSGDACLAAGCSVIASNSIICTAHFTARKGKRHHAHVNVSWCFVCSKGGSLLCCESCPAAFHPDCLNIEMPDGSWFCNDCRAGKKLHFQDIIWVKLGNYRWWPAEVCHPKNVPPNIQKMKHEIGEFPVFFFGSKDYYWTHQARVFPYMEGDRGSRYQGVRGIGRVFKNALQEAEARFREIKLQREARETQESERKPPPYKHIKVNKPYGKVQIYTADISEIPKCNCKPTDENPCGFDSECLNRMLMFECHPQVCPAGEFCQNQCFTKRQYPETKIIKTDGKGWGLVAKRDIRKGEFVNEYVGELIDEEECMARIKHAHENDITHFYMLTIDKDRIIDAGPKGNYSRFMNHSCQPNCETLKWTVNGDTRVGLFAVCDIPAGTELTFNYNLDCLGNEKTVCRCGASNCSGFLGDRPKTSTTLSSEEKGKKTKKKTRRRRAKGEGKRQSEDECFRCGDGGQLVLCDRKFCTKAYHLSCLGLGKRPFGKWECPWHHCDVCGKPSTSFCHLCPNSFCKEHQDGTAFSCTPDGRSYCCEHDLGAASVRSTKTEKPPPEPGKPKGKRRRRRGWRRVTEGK
Type of assay: biochemical.

In assay [12] the target is Intestinal-type alkaline phosphatase (Mus musculus, UniProt P24822). The assay is described as follows: PubChem AID 488785. Type of assay: functional.
A further assay has as its system H9c2. The assay is described as follows: cells. The following applies: Rattus norvegicus, H9c2, Myocardium. Type of assay: functional, cell-based.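 Also: confirmatory concentration-response retest of ultra-high-throughput screening hits for modulation of myocardial damage; cell death induced by hydrogen peroxide oxidative stress; compound pretreatment for 60 min then peroxide exposure for 2 h; potency is for protecting the cells against peroxide damage rather than for killing them.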

Sequence of G-protein coupled receptor 55 (Q9Y2T6 whole entry): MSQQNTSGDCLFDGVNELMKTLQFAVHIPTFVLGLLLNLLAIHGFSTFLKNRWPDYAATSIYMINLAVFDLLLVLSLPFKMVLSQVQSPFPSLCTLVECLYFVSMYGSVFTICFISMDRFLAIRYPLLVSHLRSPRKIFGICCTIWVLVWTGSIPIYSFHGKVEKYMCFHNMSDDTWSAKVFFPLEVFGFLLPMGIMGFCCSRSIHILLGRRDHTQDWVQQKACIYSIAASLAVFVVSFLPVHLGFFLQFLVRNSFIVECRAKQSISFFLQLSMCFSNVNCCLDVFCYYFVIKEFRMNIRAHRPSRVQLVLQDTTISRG
Sequence of Alkaline phosphatase, placental type (P05187 whole entry): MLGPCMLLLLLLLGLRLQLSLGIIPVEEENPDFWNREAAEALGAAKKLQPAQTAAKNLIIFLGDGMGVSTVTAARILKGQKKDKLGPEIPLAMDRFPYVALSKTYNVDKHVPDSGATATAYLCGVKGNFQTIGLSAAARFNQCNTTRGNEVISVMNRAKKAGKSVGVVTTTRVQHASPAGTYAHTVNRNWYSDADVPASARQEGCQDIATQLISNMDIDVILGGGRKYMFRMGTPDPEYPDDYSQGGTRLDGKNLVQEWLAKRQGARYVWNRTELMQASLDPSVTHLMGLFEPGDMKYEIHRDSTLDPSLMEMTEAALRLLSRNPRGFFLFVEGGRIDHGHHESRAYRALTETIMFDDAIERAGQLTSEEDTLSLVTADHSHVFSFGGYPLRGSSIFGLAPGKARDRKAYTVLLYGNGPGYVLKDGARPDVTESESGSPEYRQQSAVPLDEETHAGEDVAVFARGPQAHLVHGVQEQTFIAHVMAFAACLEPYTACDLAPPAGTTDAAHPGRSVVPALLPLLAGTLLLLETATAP
Sequence of Nonstructural protein 1 (Q194T2 whole entry): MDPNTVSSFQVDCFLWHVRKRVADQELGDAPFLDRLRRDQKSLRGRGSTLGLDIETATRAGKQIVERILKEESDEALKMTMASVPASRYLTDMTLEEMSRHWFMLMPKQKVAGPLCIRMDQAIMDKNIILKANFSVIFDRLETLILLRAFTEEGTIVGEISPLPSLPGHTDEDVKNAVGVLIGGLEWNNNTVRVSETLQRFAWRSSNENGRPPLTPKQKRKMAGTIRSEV
Sequence of Intestinal-type alkaline phosphatase (Homo sapiens, UniProt P09923) (P09923 whole entry): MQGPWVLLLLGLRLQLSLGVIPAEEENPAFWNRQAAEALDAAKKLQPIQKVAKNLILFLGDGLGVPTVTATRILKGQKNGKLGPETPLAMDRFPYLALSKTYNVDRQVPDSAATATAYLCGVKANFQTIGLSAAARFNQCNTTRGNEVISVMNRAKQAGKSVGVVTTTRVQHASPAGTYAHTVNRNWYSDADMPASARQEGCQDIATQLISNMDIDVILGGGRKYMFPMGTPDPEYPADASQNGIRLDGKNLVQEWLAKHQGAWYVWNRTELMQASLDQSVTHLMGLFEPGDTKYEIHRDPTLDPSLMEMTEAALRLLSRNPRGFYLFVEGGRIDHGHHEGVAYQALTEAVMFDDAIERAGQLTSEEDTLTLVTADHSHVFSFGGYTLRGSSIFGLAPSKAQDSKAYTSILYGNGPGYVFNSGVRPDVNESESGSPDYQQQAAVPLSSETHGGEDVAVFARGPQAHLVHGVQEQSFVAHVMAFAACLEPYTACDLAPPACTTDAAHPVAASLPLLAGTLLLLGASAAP
Sequence of Intestinal-type alkaline phosphatase (Mus musculus, UniProt P24822) (P24822 whole entry): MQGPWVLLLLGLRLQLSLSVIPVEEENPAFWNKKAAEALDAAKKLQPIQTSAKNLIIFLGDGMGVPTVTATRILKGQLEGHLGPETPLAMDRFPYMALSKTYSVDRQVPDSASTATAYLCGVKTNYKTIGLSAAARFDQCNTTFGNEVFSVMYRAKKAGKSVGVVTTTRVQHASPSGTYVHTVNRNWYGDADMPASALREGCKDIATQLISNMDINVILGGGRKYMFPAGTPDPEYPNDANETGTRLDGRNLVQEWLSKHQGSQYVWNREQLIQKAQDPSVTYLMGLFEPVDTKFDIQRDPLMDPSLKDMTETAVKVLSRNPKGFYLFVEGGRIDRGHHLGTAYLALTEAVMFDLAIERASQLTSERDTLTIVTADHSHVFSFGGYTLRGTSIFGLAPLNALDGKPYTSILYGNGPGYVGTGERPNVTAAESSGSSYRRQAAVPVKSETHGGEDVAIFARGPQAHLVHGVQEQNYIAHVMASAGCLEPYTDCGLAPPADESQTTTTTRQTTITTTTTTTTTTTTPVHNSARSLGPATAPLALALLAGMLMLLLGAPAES
Sequence of DNA dC->dU-editing enzyme APOBEC-3G (Q9HC16 whole entry): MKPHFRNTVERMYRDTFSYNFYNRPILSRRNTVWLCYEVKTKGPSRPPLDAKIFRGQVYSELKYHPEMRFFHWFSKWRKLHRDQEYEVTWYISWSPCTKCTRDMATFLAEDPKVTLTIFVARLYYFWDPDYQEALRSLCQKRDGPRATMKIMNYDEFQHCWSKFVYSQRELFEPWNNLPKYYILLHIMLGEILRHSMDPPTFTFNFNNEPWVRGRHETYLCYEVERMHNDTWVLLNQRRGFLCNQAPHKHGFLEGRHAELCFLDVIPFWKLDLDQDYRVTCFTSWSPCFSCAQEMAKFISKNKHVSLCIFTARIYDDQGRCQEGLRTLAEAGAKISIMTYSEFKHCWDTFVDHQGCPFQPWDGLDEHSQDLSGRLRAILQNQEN
Sequence of DNA dC->dU-editing enzyme APOBEC-3A (P31941 whole entry): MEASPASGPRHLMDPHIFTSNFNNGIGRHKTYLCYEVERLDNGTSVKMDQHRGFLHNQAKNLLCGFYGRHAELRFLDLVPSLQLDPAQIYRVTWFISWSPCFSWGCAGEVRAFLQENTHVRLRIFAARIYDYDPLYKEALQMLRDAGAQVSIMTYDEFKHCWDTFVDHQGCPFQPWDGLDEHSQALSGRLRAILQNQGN

Turning to `CCOC(=O)C1=C(C)N=C(C)/C(=C(/O)OC)C1c1cccc([N+](=O)[O-])c1` (stereo not given), in [1], the 50% inhibitory concentration (IC50) is 1.47 µM (active).
Take `COC(=O)C1=C(C)N(Cc2ccccc2)C(=NCC(C)C)N[C@H]1c1ccccc1`: the 50% inhibitory concentration (IC50) in [2] was 4.17 µM (active); in assay [4], 4.65 µM (active); in assay [1], 1.78 µM (active). Moreover, the concentration for a half-maximal effect (EC50) in assay [3] was > 300 µM (not active); in assay [5], 42.7 µM (active).
As to `Cn1c(NCC(=O)c2ccc(O)c(O)c2)nc2ccccc21`, the results for the concentration for half-maximal inhibition (IC50) in assay [6] and in [7] were 8.58 µM (active) and 7.9 µM (active), respectively.
Consider `CCCCn1c(SCC(=O)N2c3ccccc3Sc3ccccc32)nc2c1c(=O)n(C)c(=O)n2C`, for which the concentration for a half-maximal effect (EC50) in [8] was 4.22 µM (active).
For `CCn1cc(/C=C(\NC(=O)c2ccccc2Cl)C(=O)N2CCOCC2)c2ccccc21`, at CAAX prenyl protease 2, the AC50 is 4.91 µM (active).
With `CN1CCN(C2CCN(c3ccc(Nc4nnc(Cl)c(Nc5ccccc5S(C)(=O)=O)n4)c(OC(CF)CF)c3)CC2)CC1`, the half-maximal inhibitory concentration (IC50) on Nonstructural protein 1 is > 100 µM (active).
Regarding `O=C1C(Cl)=C(Nc2cccc(O)c2)C(=O)N1Cc1ccccc1`, the EC50 in assay [8] is 3.76 µM (active).
Still for that read-out and setting: for `Cc1cc(OCC(=O)N(C(C)C)C(C)C)cc(C)c1Br` the value was 3.76 µM (active).
Consider `O=C(CN1CCN(c2ccccc2F)CC1)c1ccc(O)c(O)c1`, for which the EC50 in assay [9] is > 100 µM (inactive). Further, the values for the half-inhibitory concentration (IC50) (in assay [10]; in assay [12]; in the assay with H9c2) were 96.8 µM (active), 1.63 µM (active) and > 79 µM (inactive), respectively. For the same compound, in assay [11], the AC50 is 8.98 µM (active).
For `CCCCN1C(=O)/C(=N\Nc2ccccc2)c2ccccc21`, the 50% inhibitory concentration (IC50) in [6] is 72.3 µM (active); in assay [7], 18.7 µM (active).

As a reminder, the IC50 is the concentration needed to halve the response being measured. Broadly, the EC50 is the concentration that produces a half-maximal response. In general, AC50 refers to the concentration giving half of the maximal activity seen.
